Experimental data reported in patent publication US12180193B2, “Accelerating fibrosarcoma protein degrading compounds and associated methods of use” (Arvinas Operations, Inc., priority 2020, dated 2024).

Legend:
BRAF V600E = biological target: T1, BRAF V600E (Homo sapiens, UniProt P15056, V600E); experiment: Cellular assay of target protein degradation, T-Rex 293 cells stably transfected with HA-BRAF_V600E (HA immunofluorescence, high content imaging); assay type: cell-based; details: T-Rex 293 HA-BRAF V600E; for DC50: half maximal degradation, read-out: BRaf V600E DC50; for Dmax: maximum degradation observed
T1 construct: expressed in transfected cells
T1 sequence (P15056 whole entry V600E): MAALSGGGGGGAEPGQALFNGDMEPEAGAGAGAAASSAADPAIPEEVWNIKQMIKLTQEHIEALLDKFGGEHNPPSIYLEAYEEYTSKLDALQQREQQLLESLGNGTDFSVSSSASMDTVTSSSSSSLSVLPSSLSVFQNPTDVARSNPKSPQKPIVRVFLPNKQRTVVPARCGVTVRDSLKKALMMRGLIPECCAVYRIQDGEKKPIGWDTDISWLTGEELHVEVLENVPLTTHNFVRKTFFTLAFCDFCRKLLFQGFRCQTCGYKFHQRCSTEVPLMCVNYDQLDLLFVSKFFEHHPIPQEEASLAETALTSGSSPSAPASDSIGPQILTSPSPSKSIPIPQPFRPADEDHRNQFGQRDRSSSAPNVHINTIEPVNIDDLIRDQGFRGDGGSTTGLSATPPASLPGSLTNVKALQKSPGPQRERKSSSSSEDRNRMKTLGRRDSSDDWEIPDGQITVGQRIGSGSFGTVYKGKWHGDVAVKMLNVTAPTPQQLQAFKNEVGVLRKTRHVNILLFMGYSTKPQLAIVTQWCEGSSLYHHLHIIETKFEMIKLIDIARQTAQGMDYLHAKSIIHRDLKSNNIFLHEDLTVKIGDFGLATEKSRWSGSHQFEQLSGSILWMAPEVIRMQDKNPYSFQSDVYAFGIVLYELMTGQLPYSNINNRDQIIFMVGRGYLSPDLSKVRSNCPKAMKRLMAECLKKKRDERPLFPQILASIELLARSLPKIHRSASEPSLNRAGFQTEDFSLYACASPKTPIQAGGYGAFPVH
Procedure, shortened: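 Doxycycline-induced (1 ng/mL) cells were treated 24 h at 37 °C with compound at 1 μM to 0.1 nM final in 0.1% DMSO. After fixation, permeabilization and blocking, anti-HA staining was imaged by high-content reading; DC50 and Dmax (% of control) were derived.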

BRAF G466V = biological target: T2, BRAF G466V (Homo sapiens, UniProt P15056, G466V); experiment: Cellular assay of target protein degradation, T-Rex 293 cells stably transfected with HA-BRAF G466V (HA immunofluorescence, high content imaging); assay type: cell-based; details: T-Rex 293 HA-BRAF G466V; for DC50: half maximal degradation, read-out: BRaf G466V DC50; for Dmax: maximum degradation observed
T2 construct: expressed in transfected cells
T2 sequence (P15056 whole entry G466V): as the sequence (P15056 whole entry V600E) above, with G466V, E600V counted along it
Procedure, shortened: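 Cells expressing doxycycline-induced (0.75 ng/mL) HA-BRAF G466V were treated with compound at 30 nM to 3 pM in 0.1% DMSO for 24 hours at 37° C. After fixation and permeabilization, HA was immunostained and quantified by high content imaging to derive DC50 and Dmax.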

| Structure (SMILES) | DC50 (BRAF V600E) [nM] | Dmax (BRAF V600E) [%] | DC50 (BRAF G466V) [nM] | Dmax (BRAF G466V) [%] |
| --- | --- | --- | --- | --- |
| O=C1CC[C@@H](NC(=O)N2CCCc3c(C4CCN(CC5CCN(c6ccc(-c7cnc8[nH]cc(C(=O)c9c(F)ccc(NS(=O)(=O)N%10CC[C@@H](F)C%10)c9F)c8c7)cc6)CC5)CC4)ccnc32)C(=O)N1 [Compound 367, 5-(1-{[1-(4-{3-[2,6-difluoro-3-({[(3R)-3-fluoropyrrolidin-1-yl]sulfonyl}amino)benzoyl]-1H-pyrrolo[2,3-b]pyridin-5-yl}phenyl)piperidin-4-yl]methyl}piperidin-4-yl)-N-[(3R)-2,6-dioxopiperidin-3-yl]-1,2,3,4-tetrahydro-1,8-naphthyridine-1-carboxamide] | > 500 | – | 1 to 10 | < 35 |
| O=C1CC[C@H](NC(=O)N2CCCc3c(N4CCC(CN5CCN(c6ccc(-c7cnc8[nH]cc(C(=O)c9c(F)ccc(NS(=O)(=O)N%10CC[C@@H](F)C%10)c9F)c8c7)cc6)CC5)CC4)ccnc32)C(=O)N1 [Compound 371, 5-(4-{[4-(4-{3-[2,6-difluoro-3-({[(3R)-3-fluoropyrrolidin-1-yl]sulfonyl}amino)benzoyl]-1H-pyrrolo[2,3-b]pyridin-5-yl}phenyl)piperazin-1-yl]methyl}piperidin-1-yl)-N-[(3S)-2,6-dioxopiperidin-3-yl]-1,2,3,4-tetrahydro-1,8-naphthyridine-1-carboxamide] | 50 to 500 | > 70 | 1 to 10 | > 70 |
| O=C1CC[C@@H](NC(=O)N2CCCc3c(N4CCC(CN5CCN(c6ccc(-c7cnc8[nH]cc(C(=O)c9c(F)ccc(NS(=O)(=O)N%10CC[C@@H](F)C%10)c9F)c8c7)cc6)CC5)CC4)ccnc32)C(=O)N1 [Compound 372, 5-(4-{[4-(4-{3-[2,6-difluoro-3-({[(3R)-3-fluoropyrrolidin-1-yl]sulfonyl}amino)benzoyl]-1H-pyrrolo[2,3-b]pyridin-5-yl}phenyl)piperazin-1-yl]methyl}piperidin-1-yl)-N-[(3R)-2,6-dioxopiperidin-3-yl]-1,2,3,4-tetrahydro-1,8-naphthyridine-1-carboxamide] | > 500 | – | > 30 | – |
| O=C1CC[C@H](NC(=O)c2ccc(N3CC4(CN(CCc5ccc(-c6cnc7[nH]cc(C(=O)c8c(F)ccc(NS(=O)(=O)N9CC[C@@H](F)C9)c8F)c7c6)cc5)C4)C3)cc2F)C(=O)N1 [Compound 373, 4-[6-(2-[4-[3-(2,6-difluoro-3-[[(3R)-3-fluoropyrrolidin-1-ylsulfonyl]amino]benzoyl)-1H-pyrrolo[2,3-b]pyridin-5-yl]phenyl]ethyl)-2,6-diazaspiro[3.3]heptan-2-yl]-N-[(3S)-2,6-dioxopiperidin-3-yl]-2-fluorobenzamide] | 5 to 50 | 35 to 70 | 1 to 10 | > 70 |
| O=C1CCC(NC(=O)c2ccc(N3CC4(CN(CCc5ccc(-c6cnc7[nH]cc(C(=O)c8c(F)ccc(NS(=O)(=O)N9CC[C@@H](F)C9)c8F)c7c6)cc5)C4)C3)cc2F)C(=O)N1 (stereo partly drawn) [Compound 374, 4-{6-[2-(4-{3-[2,6-difluoro-3-({[(3R)-3-fluoropyrrolidin-1-yl]sulfonyl}amino)benzoyl]-1H-pyrrolo[2,3-b]pyridin-5-yl}phenyl)ethyl]-2,6-diazaspiro[3.3]heptan-2-yl}-N-(2,6-dioxopiperidin-3-yl)-2-fluorobenzamide] | 5 to 50 | 35 to 70 | < 1 | 35 to 70 |
| O=C1CC[C@H](NC(=O)c2ccc(C3CCN(CC4CCN(c5ncc(-c6cnc7[nH]cc(C(=O)c8c(F)ccc(NS(=O)(=O)N9CC[C@@H](F)C9)c8F)c7c6)cn5)CC4)CC3)cc2F)C(=O)N1 [Compound 375, 4-(1-{[1-(5-{3-[2,6-difluoro-3-({[(3R)-3-fluoropyrrolidin-1-yl]sulfonyl}amino)benzoyl]-1H-pyrrolo[2,3-b]pyridin-5-yl}pyrimidin-2-yl)piperidin-4-yl]methyl}piperidin-4-yl)-N-[(3S)-2,6-dioxopiperidin-3-yl]-2-fluorobenzamide] | 50 to 500 | 35 to 70 | 1 to 10 | 35 to 70 |
| O=C1CCC(NC(=O)c2ccc(C3CCN(CC4CCN(c5ncc(-c6cnc7[nH]cc(C(=O)c8c(F)ccc(NS(=O)(=O)N9CC[C@@H](F)C9)c8F)c7c6)cn5)CC4)CC3)cc2F)C(=O)N1 (stereo partly drawn) [Compound 376, 4-(1-{[1-(5-{3-[2,6-difluoro-3-({[(3R)-3-fluoropyrrolidin-1-yl]sulfonyl}amino)benzoyl]-1H-pyrrolo[2,3-b]pyridin-5-yl}pyrimidin-2-yl)piperidin-4-yl]methyl}piperidin-4-yl)-N-(2,6-dioxopiperidin-3-yl)-2-fluorobenzamide] | 50 to 500 | 35 to 70 | 1 to 10 | 35 to 70 |
| O=C1CC[C@H](NC(=O)c2ccc(N3CCN(CCN4CCN(c5ccc(-c6cnc7[nH]cc(C(=O)c8c(F)ccc(NS(=O)(=O)N9CC[C@@H](F)C9)c8F)c7c6)cc5)CC4)CC3)cc2F)C(=O)N1 [Compound 377, 4-(4-{2-[4-(4-{3-[2,6-difluoro-3-({[(3R)-3-fluoropyrrolidin-1-yl]sulfonyl}amino)benzoyl]-1H-pyrrolo[2,3-b]pyridin-5-yl}phenyl)piperazin-1-yl]ethyl}piperazin-1-yl)-N-[(3S)-2,6-dioxopiperidin-3-yl]-2-fluorobenzamide] | 5 to 50 | 35 to 70 | 1 to 10 | 35 to 70 |
| O=C1CCC(NC(=O)c2ccc(N3CCN(CCN4CCN(c5ccc(-c6cnc7[nH]cc(C(=O)c8c(F)ccc(NS(=O)(=O)N9CC[C@@H](F)C9)c8F)c7c6)cc5)CC4)CC3)cc2F)C(=O)N1 (stereo partly drawn) [Compound 378, 4-(4-{2-[4-(4-{3-[2,6-difluoro-3-({[(3R)-3-fluoropyrrolidin-1-yl]sulfonyl}amino)benzoyl]-1H-pyrrolo[2,3-b]pyridin-5-yl}phenyl)piperazin-1-yl]ethyl}piperazin-1-yl)-N-(2,6-dioxopiperidin-3-yl)-2-fluorobenzamide] | 5 to 50 | < 35 | < 1 | < 35 |

Next, values leading:

| DC50 (BRAF V600E) [nM] | Dmax (BRAF V600E) [%] | DC50 (BRAF G466V) [nM] | Dmax (BRAF G466V) [%] | Structure (SMILES) |
| --- | --- | --- | --- | --- |
| 5 to 50 | > 70 | 1 to 10 | > 70 | O=C1CCC(c2ccc(C3CCN(CC4CCN(c5ccc(-c6cnc7[nH]cc(C(=O)c8c(F)ccc(NS(=O)(=O)N9CC[C@@H](F)C9)c8F)c7c6)cc5)CC4)CC3)cn2)C(=O)N1 (stereo partly drawn) [Compound 365, (3R)-N-[3-(5-{4-[4-({4-[6-(2,6-dioxopiperidin-3-yl)pyridin-3-yl]piperidin-1-yl}methyl)piperidin-1-yl]phenyl}-1H-pyrrolo[2,3-b]pyridine-3-carbonyl)-2,4-difluorophenyl]-3-fluoropyrrolidine-1-sulfonamide] |
| 5 to 50 | 35 to 70 | 1 to 10 | > 70 | O=C1CC[C@H](NC(=O)N2CCCc3c(C4CCN(CC5CCN(c6ccc(-c7cnc8[nH]cc(C(=O)c9c(F)ccc(NS(=O)(=O)N%10CC[C@@H](F)C%10)c9F)c8c7)cc6)CC5)CC4)ccnc32)C(=O)N1 [Compound 366, 5-(1-{[1-(4-{3-[2,6-difluoro-3-({[(3R)-3-fluoropyrrolidin-1-yl]sulfonyl}amino)benzoyl]-1H-pyrrolo[2,3-b]pyridin-5-yl}phenyl)piperidin-4-yl]methyl}piperidin-4-yl)-N-[(3S)-2,6-dioxopiperidin-3-yl]-1,2,3,4-tetrahydro-1,8-naphthyridine-1-carboxamide] |
| 5 to 50 | 35 to 70 | 1 to 10 | 35 to 70 | O=C1CCC(c2ccc(N3CC4(CN(CC5CCN(c6ccc(-c7cnc8[nH]cc(C(=O)c9c(F)ccc(NS(=O)(=O)N%10CC[C@@H](F)C%10)c9F)c8c7)cc6)CC5)C4)C3)cc2)C(=O)N1 (stereo partly drawn) [Compound 368, (3R)-N-[3-(5-{4-[4-({6-[4-(2,6-dioxopiperidin-3-yl)phenyl]-2,6-diazaspiro[3.3]heptan-2-yl}methyl)piperidin-1-yl]phenyl}-1H-pyrrolo[2,3-b]pyridine-3-carbonyl)-2,4-difluorophenyl]-3-fluoropyrrolidine-1-sulfonamide] |
| 5 to 50 | 35 to 70 | 1 to 10 | > 70 | O=C1CC[C@H](NC(=O)N2CCCc3c(N4CCN(CC5CCN(c6ccc(-c7cnc8[nH]cc(C(=O)c9c(F)ccc(NS(=O)(=O)N%10CC[C@@H](F)C%10)c9F)c8c7)cc6)CC5)CC4)ccnc32)C(=O)N1 [Compound 369, 5-(4-{[1-(4-{3-[2,6-difluoro-3-({[(3R)-3-fluoropyrrolidin-1-yl]sulfonyl}amino)benzoyl]-1H-pyrrolo[2,3-b]pyridin-5-yl}phenyl)piperidin-4-yl]methyl}piperazin-1-yl)-N-[(3S)-2,6-dioxopiperidin-3-yl]-1,2,3,4-tetrahydro-1,8-naphthyridine-1-carboxamide] |
| 5 to 50 | 35 to 70 | 1 to 10 | > 70 | O=C1CCC(NC(=O)N2CCCc3c(N4CCN(CC5CCN(c6ccc(-c7cnc8[nH]cc(C(=O)c9c(F)ccc(NS(=O)(=O)N%10CC[C@@H](F)C%10)c9F)c8c7)cc6)CC5)CC4)ccnc32)C(=O)N1 (stereo partly drawn) [Compound 370, 5-(4-{[1-(4-{3-[2,6-difluoro-3-({[(3R)-3-fluoropyrrolidin-1-yl]sulfonyl}amino)benzoyl]-1H-pyrrolo[2,3-b]pyridin-5-yl}phenyl)piperidin-4-yl]methyl}piperazin-1-yl)-N-(2,6-dioxopiperidin-3-yl)-1,2,3,4-tetrahydro-1,8-naphthyridine-1-carboxamide] |
